Results on two molecules are retold here after patent US20260055154A1, “LONG-ACTING DUAL-AGONIST COMPOUND” (CHENGDU AODA BIOTECHNOLOGY CO., LTD, priority 2022, published 2026).

The target of one series is T1, GcgR (Homo sapiens, UniProt P47871).
T1 construct: expressed in transfected cells; host or cells: CHO-K1
The series can be described thus: Gcg activity determination (cAMP, chemiluminescence, stable cell line). It is filed as cell-based. Conditions: CHO-K1 cell line stably expressing GcgR; OXM3 as reference. As to the method:
(§1) GcgR activates the intracellular adenylate cyclase pathway under the stimulation of its specific agonist, to increase the cAMP level and ultimately lead to the production and release of insulin. The stably cell line expressing GcgR was stimulated by the test substance to rapidly increase the intracellular cAMP level. The relative light units (RLU) in the cells after the stimulation by each dose of agonists were determined by the chemiluminescence method, and then the EC50 of the agonist was calculated. This activity determination method is currently a common determination method for Geg receptor agonist activity at home and abroad.
A CHO-K1 cell line stably expressing GcgR was adopted. The cells were stimulated with different concentrations of agonists, and the relative light units (RLU) after the stimulation of cells by each dose of agonists were determined. Using OXM3 as a reference, the relative biological activity of the agonist was obtained.

Series [1] can be described thus: in vivo. The note with it: human.
The next series has as its target T2, GLP-1R (Homo sapiens, UniProt P43220).
T2 construct: expressed in transfected cells; host or cells: CHO-K1
Nature of the series: Determination of GLP-1 activity (cAMP, chemiluminescence, stable cell line). It counts as cell-based. The note with it: CHO-K1 cell line stably expressing GLP-1R; OXM3 as reference substance. The protocol: as §1, with “GLP-1R” for “GcgR”, “stable” for “stably”, “after” for “after the”, “the test substance” for “agonists”, “GLP-1” for “Geg”
A CHO-K1 cell line that stably expresses GLP-IR was adopted, and the cells were stimulated with different concentrations of agonists. The relative light units after stimulation of the cells by each dose of agonists were measured. Using OXM3 as a reference substance, the relative biological activity of each agonist was obtained.

A short description of series [2]: in vivo. More on the design: species or system cynomolgus monkeys. The note with it: male, cynomolgus monkey, sc, 0.2 mg/kg. The protocol: The experimental animals were cynomolgus monkeys, and two male cynomolgus monkeys in each group were subcutaneously administrated the compound at a dose of 0.2 mg/kg. The venous blood samples were collected before drug administration (0 h), and 1 h, 2 h, 3 h, 4 h, 8 h, 12 h, 18 h, 24 h, 48 h, 96 h, 144 h and 168 h after administration, respectively. The plasma samples were separated by centrifugation. The blood drug concentrations of the corresponding compounds in the plasma samples were determined by liquid chromatography-mass spectrometry.

The conditions of series [3]: human, in vivo; cited from earlier work.

Like-named read-outs stand apart in the source and are kept apart here. Starred links: 1 amine or outer side, 2 acyl side, 3 side chain; linkers in the order of their positions; H or OH if unused. Non-standard residues stand in square brackets, D forms with d. Residues, ends and D or L forms follow the SMILES beside them. Groups on a side chain read outwards from the residue. No end group written: not given here. *: point of attachment. X1 = O=C(O)CCCCCCCCCCCCCCCCCCC(=O)N[C@@H](CCC(=O)NCCOCCOCCOCCOCCOCC(=O)*)C(=O)O; C20 diacid = O=C(O)CCCCCCCCCCCCCCCCCCC(=O)*; γGlu = O=C(O)[C@H](CCC(=O)[*:2])N[*:1]; AEEA = NCCOCCOCC(=O)O; Aib = CC(C)(N)C(=O)O

T1 sequence (P47871 26-477, species assumed): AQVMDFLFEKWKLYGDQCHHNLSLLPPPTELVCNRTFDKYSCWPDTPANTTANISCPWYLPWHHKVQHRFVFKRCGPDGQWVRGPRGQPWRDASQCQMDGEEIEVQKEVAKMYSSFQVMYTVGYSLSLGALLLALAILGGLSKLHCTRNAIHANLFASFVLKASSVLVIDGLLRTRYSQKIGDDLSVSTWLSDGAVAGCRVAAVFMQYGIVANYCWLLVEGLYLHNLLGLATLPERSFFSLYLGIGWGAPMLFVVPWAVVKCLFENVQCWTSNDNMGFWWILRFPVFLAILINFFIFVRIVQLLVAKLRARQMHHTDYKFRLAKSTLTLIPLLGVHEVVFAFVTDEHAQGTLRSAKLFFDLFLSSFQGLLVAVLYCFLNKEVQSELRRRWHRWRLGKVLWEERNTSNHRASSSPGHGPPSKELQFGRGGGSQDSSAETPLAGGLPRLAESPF
T2 sequence (P43220 24-463, species assumed): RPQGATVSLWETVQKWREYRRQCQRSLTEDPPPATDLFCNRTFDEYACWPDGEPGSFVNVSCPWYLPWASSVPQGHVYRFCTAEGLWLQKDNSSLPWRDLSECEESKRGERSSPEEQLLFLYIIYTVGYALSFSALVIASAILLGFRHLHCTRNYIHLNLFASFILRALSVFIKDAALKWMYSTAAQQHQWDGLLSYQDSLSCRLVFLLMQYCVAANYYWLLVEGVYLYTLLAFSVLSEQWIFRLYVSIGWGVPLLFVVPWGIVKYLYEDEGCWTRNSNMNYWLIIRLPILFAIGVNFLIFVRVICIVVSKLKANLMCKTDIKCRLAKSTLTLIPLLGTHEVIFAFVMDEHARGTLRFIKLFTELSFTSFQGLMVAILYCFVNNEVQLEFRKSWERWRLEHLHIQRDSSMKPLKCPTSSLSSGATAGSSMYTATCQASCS

On to `CC(C)C[C@H](NC(=O)[C@H](CC(C)C)NC(=O)[C@H](Cc1c[nH]c2ccccc12)NC(=O)[C@H](CCC(=O)O)NC(=O)[C@@H](NC(=O)[C@H](Cc1ccccc1)NC(=O)[C@H](CCC(=O)O)NC(=O)[C@H](CCCCNC(=O)COCCOCCOCCOCCOCCNC(=O)CC[C@H](NC(=O)CCCCCCCCCCCCCCCCCCC(=O)O)C(=O)O)NC(=O)[C@H](C)NC(=O)[C@H](CCCCN)NC(=O)[C@H](CCCCN)NC(=O)[C@H](CCC(=O)O)NC(=O)[C@H](CC(=O)O)NC(=O)[C@H](CC(C)C)NC(=O)[C@H](Cc1ccc(O)cc1)NC(=O)[C@H](CCCCN)NC(=O)[C@H](CO)NC(=O)[C@H](Cc1ccc(O)cc1)NC(=O)[C@H](CC(=O)O)NC(=O)[C@H](CO)NC(=O)[C@@H](NC(=O)[C@H](Cc1ccccc1)NC(=O)[C@@H](NC(=O)CNC(=O)[C@H](CCC(N)=O)NC(=O)C(C)(C)NC(=O)[C@@H](N)Cc1c[nH]cn1)[C@@H](C)O)[C@@H](C)O)C(C)C)C(=O)N[C@@H](CCC(=O)O)C(=O)NCC(=O)NCC(=O)N1CCC[C@H]1C(=O)N[C@@H](CO)C(=O)N[C@@H](CO)C(=O)NCC(=O)N[C@@H](C)C(=O)N1CCC[C@H]1C(=O)N1CCC[C@H]1C(=O)N1CCC[C@H]1C(=O)N[C@@H](CO)C(N)=O` [Compound 2, His-Aib-Gln-Gly-Thr-Phe-Thr-Ser-Asp-Tyr-Ser-Lys-Tyr-Leu-Asp-Glu-Lys-Lys-Ala-Lys(PEG5CH2CO-γGlu-eicosanedioic acid)-Glu-Phe-Val-Glu-Trp-Leu-Leu-Glu-Gly-Gly-Pro-Ser-Ser-Gly-Ala-Pro-Pro-Pro-Ser-NH2] (H-H[Aib]QGTFTSDYSKYLDEKKAK(X1)EFVEWLLEGGPSSGAPPPS-NH2), for which, on GcgR, the “Biological activity (%)” value was determined as 86.9%. For the same molecule, the figures for the half-life in “in vivo [1]” and in the series “in vivo [2]” were roughly 280 h and 140 h, respectively. The Relative biological activity on GLP-1R turned out to be 259.9%.

Regarding “His-Aib-Gln-Gly-Thr-Phe-Thr-Ser-Asp-Tyr-Ser-Lys-Tyr-Leu-Asp-Glu-Lys-Lys-Ala-Lys(AEEA-AEEA-γGlu-eicosanedioic acid)-Glu-Phe-Val-Glu-Trp-Leu-Leu-Glu-Gly-Gly-Pro-Ser-Ser-Gly-NH2 (H[Aib]QGTFTSDYSKYLDEKKAK([AEEA-AEEA-γGlu-C20 diacid])EFVEWLLEGGPSSG-NH2) [OXM3]”, the half-life (in general, the time needed for the level to fall by half in the phase considered) in series [3] was 120 h.
